Consider 1 molecule from patent publication US20180055888A1, “COMPOSITIONS AND METHODS FOR ENHANCING THE THERAPEUTIC POTENTIAL OF STEM CELLS” (priority 2013, published 2018).

The structures appear in SMILES notation.

The subject of assay [1] is mouse model for hind limb peripheral ischemia. The experiment in a line: Ranking analysis / overall evaluation of all parameters, mouse hind limb ischemia model. The assay is classed as in vivo, Mouse/Athymic Nude. To be noted: for Factor 2: Difference between ranks of adjacent-ranked groups / Factor by which average rank differs from the top-ranked group (4) / Average Rank: Day 35, imputed data; for Average Rank: average over Blood Flow, Limb Function, Ischemic Severity Score. The source says:
Study end points were: Clinical score; Body weight measurements; Blood flow measurements Ranking analysis: Each group was given a ranking from 1 to 10 on each of the first 3 endpoints measured (% Blood Flow, Limb Function and Ischemic Severity Score). Rank=1 is highest and Rank=10 is lowest. When two groups are tied, both receive the same rank “in the middle”; e.g. if two groups were tied in Rank=4, both received the score 4.5 (twice of which is the sum of ranks 4 and 5). For each endpoint, the median was computed for each group (the median was used to ensure that extreme value will not affect results). On each endpoint, groups were sorted by median and each given its respective rank. The average rank was computed for each group over all endpoints
While paired comparisons were done, central results are presented in a way in that they are statistically relevant and can be clearly depicted in graphics. Data are consistent across endpoints and are consistent across different analysis. To obtain this picture we eliminated Weight from consideration. […] Each group was ranked on remaining 3 endpoints on day 35 and assessed Average Rank of groups—a measure combining results from all endpoints.
Evaluating all Parameters Concurrently at Day 35. Procedure: For each parameter (Blood Flow (%), Limb Function and Ischemic Severity Score) the median in the group across all animals was computed. All the groups based on their median from 1 to 10, where 1 is best, were ranked on each of the following parameters: Blood Flow {%)—highest is 1, lowest is 10; Limb Function—highest is 10, lowest is 1 (worst category is 3, best is 0); Ischemic Severity Score—highest is 10, lowest is 1 (worst category is 4, best is 0); Finally, for each group we computed the average rank over the three parameters.

Assay [2] shares this test system. The assay can be described thus: Blood flow measurement (non-contact Laser Doppler), mouse hind limb ischemia model. The format is in vivo, Mouse/Athymic Nude. The note with it: for Rank of treatment group, Blood Flow: Day 35, imputed data, group median, rank 1 best of 10 groups. The source says:
(§1) Disclosed herein is the testing of BM MSCs in a mouse model for hind limb peripheral ischemia. Peripheral artery disease (PAD) is a form of peripheral vascular diseases (PVD) in which there are partial or total blockage of blood supply to a limb, usually the leg, leading to impaired blood flow and hypoxia in the tissue. When PAD advances it reaches the stage of critical limb ischemia (CLI) with skin ulcerations, gangrene and unavoidable amputations. One of the most promising innovative treatments for diabetic vascular complications is stem cell-based products that enhance angiogenesis (TRefl-3) Hind limb ischemia animal models have been used to evaluate various therapeutic approaches addressing stem cell transplantation.
Animal handling was according to the National Institute of Health (NIH) and the Association for Assessment and Accreditation of Laboratory Animal Care (AAALAC). Animals were housed in polysufone (PSU) cages (7-8/cage) measuring […] cm, with stainless steel top grill having facilities for pelleted food and drinking water in glass-clear polycarbonate bottle; bedding: steam sterilized clean paddy husk (Harlan, Sani-chip, Cat#: 106S8216) was used and bedding material was changed along with the cage at least twice a week. Animals were fed ad libitum a commercial rodent diet (Teklad Certified Global 18% Protein Diet cat #: 106S8216). Animals have free access to autoclaved and acidified drinking water (pH between 2.5 and 3.5) obtained from the municipality supply. Animals were housed under standard laboratory conditions, air conditioned and filtered (HEPA F6/6) with adequate fresh air supply (Minimum 15 air changes/hour). Animals were kept in a climate controlled environment. Temperatures range was 20-24° C. and RH range was 30-70% with 12 hours light and 12 hours dark cycle. Species/Strain: Mouse/Athymic Nude; Gender/Number/Age: Male/152/9-10 weeks; Source: Harlan Laboratories, Israel; Body weight: The average body weight was 28.4 g at study initiation (day 1). The minimum and maximum weights of the group were within a range of ±20% of group mean weight; Acclimation period: 5-10 days; Identification: Three position ear notching and cage cards. […] Surgery Day was defined as “DAY 0” in this study. On the day of surgery anesthesia was induced by 1.5 to 3.0% isofiurane, 1.5% N2O and 0.5% O2. […]
(§2) Body weight was measured on study day −1 prior to the surgery and once weekly thereafter. Blood flow measurement: Blood flow in legs from both sides was measured with a non-contact Laser Doppier before surgery and on days: 1, 3, 7, 14, 21, 28 and 35 post operation. Blood flow measurements were expressed as the ratio of the flow in the ischemic limb to that in the normal limb (Goto et al. Tokai J Exp Clin Med., Vol. 31, No. 3, pp. 128-132, 2006). […]

Assay [3] shares this test system. The assay can be described thus: In vivo assessment of limb function (graded scale), mouse hind limb ischemia model. The arrangement: species or system Mouse/Athymic Nude. To be noted: Day 35, imputed data, group median, rank 1 best of 10 groups. The source says: Disclosed herein is the testing of BM MSCs in a mouse model for hind limb peripheral ischemia. Peripheral artery disease (PAD) is a form of peripheral vascular diseases (PVD) in which there are partial or total blockage of blood supply to a limb, usually the leg, leading to impaired blood flow and hypoxia in the tissue. When PAD advances it reaches the stage of critical limb ischemia (CLI) with skin ulcerations, gangrene and unavoidable amputations. […]
In vivo assessment of limb function and Ischemic damage. Semi-quantitative assessment of impaired use of the ischemic limb was performed once a week post-surgery using the following scale (Stabile et al., Circulation. 2003; 15; 108{2):205-210). […]
In vivo assessment of limb function. Semi-quantitative assessment of impaired use of the ischemic limb was performed on days 7 up to 35 by using graded functional scales. […]
(§3) In further analyses the imputation of missing data is done in the following way: Blood Flow (%): Value of the first measurement after the surgery (assumption is that treatment failed so that there is no improvement beyond what was observed immediately after surgery); Ischemic Severity Score: 4=“Total Hind-Limb Loss” (the worst score possible); Limb Function 3=“Dragging of foot” (the worst score possible); Weight (g): The animal's lowest weight at any of the points measured up to and including the day of amputation.

Assay [4] shares this test system. The assay can be described thus: Macroscopic evaluation of ischemic severity (morphological grades for necrotic area), mouse hind limb ischemia model. The assay is classed as in vivo, Mouse/Athymic Nude. The note with it: Day 35, imputed data, group median, rank 1 best of 10 groups.
Source text: as §1
Under anesthesia, the mouse was placed with ventral side up. A 0.5-1.0 cm incision was made in the skin in the inguinal area. The femoral artery was ligated twice with 6-0 silk thread and transected between the ligatures. […]
as §2

The test system is the same in assay [5]. The experiment in a line: Animal disposition (amputations, completion of 35 days follow-up), mouse hind limb ischemia model. The format is in vivo. To be noted: for Completed % (completed 35 days follow-up) / Imputed % (amputation after day 14, attributed to treatment failure): % of animals of the group; for Completed N (completed 35 days follow-up) / Imputed N (amputation after day 14, attributed to treatment failure): number of animals of the group.
Source text: A major problem in pre-clinical studies is often the high drop-out rate of animals due to treatment related failure (amputations after day 14 post surgery) or unrelated to treatment (e.g. death during anesthesia, or amputations before day 14 post surgery). Only a few animals had to be excluded from statistical analysis due to the latter reason.
as §1
Under anesthesia, the mouse was placed with ventral side up. A 0.5-1.0 cm incision was made in the skin in the inguinal area. The femoral artery was ligated twice with 6-0 silk thread and transected between the ligatures. The wound was closed with 4-0 silk thread and the mouse was allowed to recover.
On DAY 1, 24 hours post-surgery, each treated animal was injected intramuscular at two sites (the proximal and the distal side of the surgical wound) or intravenous into the tail vein. For intramuscular injection the animals were injected 50 μl at each site, total 100 μl per animal. For intravenous injection the animals were injected by 200 μl per animal.
as §3

For the molecule `Cc1ccc2c(c1)C(=O)C1(O)CCN(c3ccccc3)C1=N2` (centres unmarked) [DMEM + BB, blebbistatin], the “overall efficacy in the model” value in assay [1] (conclusion over endpoints) was “no beneficial effect”. Further, the entries for the “Factor 2: Difference between ranks of adjacent-ranked groups” value in assay [1] (im) and in assay [1] (iv) were 0.8 and 0.0, respectively. Also, the “Factor by which average rank differs from the top-ranked group (4)” value in assay [1] (im) and in assay [1] (iv) was 4.7 each time. In addition, the “Average Rank” value in assay [1] (im) and in assay [1] (iv) was 5.8 in each case. Also, the “regeneration of blood flow” value in assay [2] (blebbistatin alone, without cells, FIGS. 1A-B) was “no effect on the regeneration of blood flow”. Further, the “Rank of treatment group, Blood Flow” value in assay [2] (im) and in assay [2] (iv) was 6.5 each time. Further, the “regeneration in blood flow over time” value in assay [2] (intramuscular, FIG. 1A) was “marginally recovery effects”. Further, the “Rank of treatment group, Limb Function” value in assay [3] (im) and in assay [3] (iv) was 5 throughout. The “Rank of treatment group, Ischemic Severity Score” value in assay [4] (im) and in assay [4] (iv) was 6 in each case. Also, the “Completed % (completed 35 days follow-up)” value was found to be 82.4% in assay [5] (im) and 93.3% in assay [5] (iv). Further, the “Imputed % (amputation after day 14, attributed to treatment failure)” value in assay [5] (im) and in assay [5] (iv) was 0% in each case. The “Completed N (completed 35 days follow-up)” value in assay [5] (im) and in assay [5] (iv) was 14 throughout. The “Imputed N (amputation after day 14, attributed to treatment failure)” value in assay [5] (im) and in assay [5] (iv) was 0 each time.
